Experimental data reported in patent US10912301B2, “Herbicide combinations comprising L-glufosinate and indaziflam” (BASF SE, priority 2015, dated 2021).
Like-named read-outs stand apart in the source and are kept apart here.

Legend:
[1] = test system: monocotyledonous and dicotyledonous harmful plant species; assay: Post-emergence efficacy of indaziflam alone; type: in vivo; conditions: product containing 4 g/L of indaziflam, dose rate 12 g/ha
[2] = test system: monocotyledonous and dicotyledonous harmful plant species; conditions: stated as known; cited from earlier work
[3] = test system: Amaranthus retroflexus (AMARE); assay: Greenhouse pot trial, single post-emergence treatment, herbicidal activity rating; type: in vivo; conditions: BBCH growth stage 11-12, 12 g/ha indaziflam
Method: (§1) In separate pots, biological trials were conducted in the greenhouse under identical conditions (apart from the treatment with the different products P1, P2 and P3 mentioned above). Each pot contained the same soil and the same amount of seeds of each of the following weeds (two monocotyledonous and two dicotyledonous harmful plant species (weed species)):
(§2) The Tables 1 to 6 reflect the observations after certain periods of time, indicated in days (referred to as DAA=days after application) after start of treatment with/application of the respective product P1, P2 or P3 mentioned above, each in the amounts indicated below.
(§3) Indaziflam was used in an amount of 12 g/ha.

Stellaria media (STEME) = assay: as above; type: in vivo; conditions: BBCH growth stage 11-12, 12 g/ha indaziflam
Method: as §1, §2, §3

Poa annua (POAAN) = assay: as above; type: in vivo; conditions: BBCH growth stage 11-12, 12 g/ha indaziflam
Method: as §1, §2, §3

[4] = test system: Lolium multiflorum (LOLMU); assay: as above; type: in vivo; conditions: BBCH growth stage 11-12, 12 g/ha indaziflam
Method: as §1, §2, §3

## Cc1ccc2c(c1)[C@H](Nc1nc(N)nc([C@@H](C)F)n1)[C@@H](C)C2 (mixture of isomers) [indaziflam, N^2-[(1R,2S)-2,3-dihydro-2,6-dimethyl-1H-inden-1-yl]-6-[(1RS)-1-fluoroethyl]-1,3,5-triazine-2,4-diamine]
[1]
  post-emergence efficacy: only very limited post-emergence efficacy
[2]
  post-emergence efficacy: insufficient post-emergence efficacy
[3]
  Ratings of herbicidal activity: Regrowth: very weak herbicidal effect starting on day 7 after treatment
Stellaria media (STEME)
  Ratings of herbicidal activity: Regrowth: no herbicidal effect
Poa annua (POAAN)
  Ratings of herbicidal activity: Regrowth: no herbicidal effect
[4]
  Ratings of herbicidal activity: Regrowth: no herbicidal effect
